This is an account of results in patent US7772264B2, “Salt and polymorphs of a DPPIV inhibitor” (Hoffmann-La Roche Inc., priority 2005, dated 2010).

Each structure is given as a SMILES string. Where a name gives a salt, the structure may show the parent alone.

The term IC50 denotes the point on the concentration scale where inhibition reaches its midpoint. Usually Ki stands for a measure of affinity in units of concentration, obtained from inhibition or displacement.

Data set [1] is described as follows: Hygroscopicity observation (water uptake and release of the crystal form). The class given is physicochemical. To be noted: solid crystal form; XRPD and IR vary with humidity of the sample. From the text:
It has been observed that the polymorph B is hygroscopic and that the X-ray powder diffraction pattern and the IR-spectrum of polymorph B can vary, depending on the humidity of the analyzed sample. Water uptake and release, respectively, result in systematic shifts of some peak positions in the X-ray powder diffraction pattern. The crystal form B is characterized by a set of peaks, as described above, that are not susceptible to peak shifts in a range larger than 0.2 degrees in 2-theta. Samples of polymorph B, which have been dried, e.g. by elevated temperature or in a dry atmosphere, show the same X-ray powder diffraction pattern. In the IR spectrum of polymorph B, variations of humidity of the sample are mainly observed in following regions: 3700-3300, 1250-1150, 1045-1000 970-955, 900-850 cm^−1. However, changes of humidity can also have an influence on the position of the peaks outside these ranges.

Data set [2] deals with T1, human DPP-IV (Homo sapiens, UniProt P27487).
T1 construct: made in house; host or cells: Pichia pastoris (secreted, purified from the culture medium)
The experiment in a line: DPP-IV activity assay (fluorogenic / colorimetric). Type of data set: biochemical. The settings on record: natural human DPP-IV from plasma pool or recombinant human DPP-IV; 37° C., pH 7.8. The method, then:
Activity of DPP-IV inhibitors are tested with natural human DPP-IV derived from a human plasma pool or with recombinant human DPP-IV. Human citrate plasma from different donors is pooled, filtered through a 0.2 micron membrane under sterile conditions and aliquots of 1 mL are shock frozen and stored at −120° C. until used. In the colorimetric DPP-IV assay 5 to 10 μL human plasma and in the fluorometric assay 1.0 μL of human plasma in a total assay volume of 100 μL is used as an enzyme source. The cDNA of the human DPP-IV sequence of amino acid 31- to 766, restricted for the N-terminus and the transmembrane domain, is cloned into pichia pastoris. […]
In the calorimetric assay H-Ala-Pro-pNA.HCl (Bachem L-1115) is used as a substrate. […] Fluorescence is detected in a Perkin Elmer Luminescence Spectrometer LS 50B at an excitation wavelength of 400 nm and an emission wavelength of 505 nm continuously every 15 seconds for 10 to 30 minutes. Initial rate constants are calculated by best fit linear regression. The absorption of pNA liberated from the calorimetric substrate is detected in a Packard SpectraCount at […] continuously every 2 minutes for 30 to 120 minutes. Initial rate constants are calculated by best fit linear regression. […]
IC50 determinations of test compounds are calculated by non-linear best fit regression of the DPP-IV inhibition of at least 5 different compound concentrations. […]

T1 sequence (P27487 31-766): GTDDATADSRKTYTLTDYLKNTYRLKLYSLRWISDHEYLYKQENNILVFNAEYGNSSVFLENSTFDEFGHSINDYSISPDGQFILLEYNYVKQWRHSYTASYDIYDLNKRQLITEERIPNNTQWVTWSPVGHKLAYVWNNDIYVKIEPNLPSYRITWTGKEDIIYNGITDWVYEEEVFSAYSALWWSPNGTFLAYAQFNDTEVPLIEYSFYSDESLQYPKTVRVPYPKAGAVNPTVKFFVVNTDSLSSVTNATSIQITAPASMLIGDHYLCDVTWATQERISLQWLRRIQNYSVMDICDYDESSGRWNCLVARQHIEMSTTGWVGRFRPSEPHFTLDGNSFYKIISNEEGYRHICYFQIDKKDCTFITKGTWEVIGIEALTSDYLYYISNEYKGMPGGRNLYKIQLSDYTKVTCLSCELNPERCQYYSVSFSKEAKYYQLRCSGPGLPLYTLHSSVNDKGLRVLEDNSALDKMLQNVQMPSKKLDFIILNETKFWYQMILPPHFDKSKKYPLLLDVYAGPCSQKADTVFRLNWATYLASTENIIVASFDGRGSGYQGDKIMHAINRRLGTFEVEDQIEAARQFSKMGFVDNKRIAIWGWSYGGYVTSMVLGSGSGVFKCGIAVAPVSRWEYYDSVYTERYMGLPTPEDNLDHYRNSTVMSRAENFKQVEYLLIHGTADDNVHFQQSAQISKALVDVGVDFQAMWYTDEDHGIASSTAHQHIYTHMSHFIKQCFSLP

In the case of `CS(=O)(=O)O.Cc1oc(-c2ccccc2)nc1CCNCC(=O)N1CCC[C@H]1C#N` [polymorph B, (S)-1-{[2-(5-Methyl-2-phenyl-oxazol-4-yl)-ethylamino]-acetyl}-pyrrolidine-2-carbonitrile mesylate], the hygroscopicity result in data set [1] is “hygroscopic”.

With `Cc1oc(-c2ccccc2)nc1CCNCC(=O)N1CCC[C@H]1C#N` [(S)-1-{[2-(5-Methyl-2-phenyl-oxazol-4-yl)-ethylamino]-acetyl}-pyrrolidine-2-carbonitrile mesylate], in data set [2], the IC50 came to 75 nM and the Ki is 80 nM.
